Measured values from patent US20240025919A1, “AZA-TETRACYCLIC OXAZEPINE COMPOUNDS AND USES THEREOF” (Genentech, Inc., priority 2022, published 2024).
Read-outs that look alike come from different tables or passages of the source.

Assays:
[1] = target: KRAS G12D (Homo sapiens (Human), UniProt P01116, G12D); experiment: KRAS G12D LoEnz Biochemical Assay, BODIPY-GDP Exchange TR-FRET (SOS1-mediated nucleotide exchange); conditions: read-out: KRas (G12D) GDP HTRF IC50
[2] = target: KRAS WT (Homo sapiens (Human), UniProt P01116); experiment: KRAS WT Biochemical Assay, BODIPY-GDP Exchange TR-FRET (Example 501; 3 nM KRAS WT, 3 nM SOS1, 60-minute incubation)
Procedure, shortened: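 SOS1-mediated exchange assay: 3 nM biotin-KRAS WT with terbium-streptavidin, started with 3 nM SOS1 and 300 nM BODIPY-GDP, HEPES pH 7.5 with MgCl2. TR-FRET (520/490 nm) read after 60 min; normalized to DMSO and full-inhibition control, IC50 from 4-parameter Hill fit.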

[3] = read-out: KRas(wt) GDP HTRF IC50

Sequence of KRAS G12D (P01116-2 other isoform, or with tags, fused parts or gaps G12D): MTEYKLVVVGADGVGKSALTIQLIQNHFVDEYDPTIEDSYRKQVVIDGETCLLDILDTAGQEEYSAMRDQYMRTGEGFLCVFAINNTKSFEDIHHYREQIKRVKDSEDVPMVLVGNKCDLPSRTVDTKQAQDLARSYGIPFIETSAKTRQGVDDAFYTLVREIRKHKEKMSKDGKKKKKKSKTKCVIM
Sequence of KRAS WT (P01116-2 other isoform, or with tags, fused parts or gaps): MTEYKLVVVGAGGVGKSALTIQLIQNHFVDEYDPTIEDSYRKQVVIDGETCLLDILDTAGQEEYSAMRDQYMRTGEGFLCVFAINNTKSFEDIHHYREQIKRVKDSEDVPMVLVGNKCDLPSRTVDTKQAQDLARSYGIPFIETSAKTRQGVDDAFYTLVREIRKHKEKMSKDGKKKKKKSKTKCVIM

Structure (SMILES)	IC50 [1] [nM]	IC50 [2, 3] [nM]	IC50 ([2]; read-out: KRas HTRF IC50) [nM]
Cc1cc(N)c(F)c(-c2nc3c4c(nc(OC[C@@]56CCCN5C[C@H](F)C6)nc4c2F)N2C[C@H]4CC[C@H](N4)[C@H]2CO3)c1C(F)(F)F [Compound 36, 2-fluoro-3-((5aS,6S,9R)-1-fluoro-12-(((2R,7aS)-2-fluorotetrahydro-1H-pyrrolizin-7a(5H)-yl)methoxy)-5a,6,7,8,9,10-hexahydro-5H-4-oxa-3,10a,11,13,14-pentaaza-6,9-methanonaphtho[1,8-ab]heptalen-2-yl)-5-methyl-4-(trifluoromethyl)aniline]	0.98	46.5	
COCC1(F)CCN(CC2(COc3nc4c5c(nc(-c6cc(N)nc(C)c6C(F)(F)F)c(F)c5n3)O[C@@H](C)[C@@H]3[C@@H]5CC[C@H](CN43)N5)CC2)C1 (stereo partly drawn) [Compound 270, 4-((5S,5aS,6S,9R)-1-fluoro-12-((1-((3-fluoro-3-(methoxymethyl)pyrrolidin-1-yl)methyl)cyclopropyl)methoxy)-5-methyl-5a,6,7,8,9,10-hexahydro-5H-4-oxa-3,10a,11,13,14-pentaaza-6,9-methanonaphtho[1,8-ab]heptalen-2-yl)-6-methyl-5-(trifluoromethyl)pyridin-2-amine]	0.26		10.7
Cc1c(Cl)c(N)cc(-c2nc3c4c(nc(OC[C@@]56CCCN5C[C@H](F)C6)nc4c2Cl)N2C[C@H]4CC[C@H](N4)[C@H]2[C@H](C)O3)c1C(F)(F)F [Compound 241, 2-Chloro-5-((5S,5aS,6S,9R)-1-chloro-12-(((2R,7aS)-2-fluorotetrahydro-1H-pyrrolizin-7a(5H)-yl)methoxy)-5-methyl-5a,6,7,8,9,10-hexahydro-5H-4-oxa-3,10a,11,13,14-pentaaza-6,9-methanonaphtho[1,8-ab]heptalen-2-yl)-3-methyl-4-(trifluoromethyl)aniline]	0.13		15.4
Cc1nc(N)c(F)c(-c2nc3c4c(nc(OC[C@@]56CCCN5C[C@H](F)C6)nc4c2F)N2C[C@H]4CC[C@H](N4)[C@H]2[C@H](C)O3)c1C(F)(F)F [Compound 194, 3-Fluoro-4-((5S,5aS,6S,9R)-1-fluoro-12-(((2R,7aS)-2-fluorotetrahydro-1H-pyrrolizin-7a(5H)-yl)methoxy)-5-methyl-5a,6,7,8,9,10-hexahydro-5H-4-oxa-3,10a,11,13,14-pentaaza-6,9-methanonaphtho[1,8-ab]heptalen-2-yl)-6-methyl-5-(trifluoromethyl)pyridin-2-amine]	0.42		28.9
Cc1c(F)c(N)nc(-c2nc3c4c(nc(OC[C@@]56CCCN5C[C@H](F)C6)nc4c2F)N2C[C@H]4CC[C@H](N4)[C@H]2[C@H](C)O3)c1C(F)(F)F [Compound 191, 3-Fluoro-6-((5S,5aS,6S,9R)-1-fluoro-12-(((2R,7aS)-2-fluorotetrahydro-1H-pyrrolizin-7a(5H)-yl)methoxy)-5-methyl-5a,6,7,8,9,10-hexahydro-5H-4-oxa-3,10a,11,13,14-pentaaza-6,9-methanonaphtho[1,8-ab]heptalen-2-yl)-4-methyl-5-(trifluoromethyl)pyridin-2-amine]	0.46		91.1
C[C@@H]1Oc2nc(-c3cccc4cccc(Cl)c34)c(F)c3nc(OC[C@@]45CCCN4CC4(CC4(F)F)C5)nc(c23)N2C[C@H]3CC[C@H](N3)[C@@H]12 (stereo partly drawn) [Compound 27, (5S,5aS,6S,9R)-2-(8-chloronaphthalen-1-yl)-12-(((7a′S)-2,2-difluorodihydro-1′H,3′H-spiro[cyclopropane-1,2′-pyrrolizin]-7a′(5′H)-yl)methoxy)-1-fluoro-5-methyl-5a,6,7,8,9,10-hexahydro-5H-4-oxa-3,10a,11,13,14-pentaaza-6,9-methanonaphtho[1,8-ab]heptalene]	0.72	65.2	
Cc1c(F)c(N)cc(-c2nc3c4c(nc(OC[C@@]56CCCN5C[C@H](F)C6)nc4c2F)N2C[C@H]4CC[C@H](NC4)[C@H]2CO3)c1C(F)(F)F [Compound 236, 2-Fluoro-5-((5aS,6S,9S)-1-fluoro-12-(((2R,7aS)-2-fluorotetrahydro-1H-pyrrolizin-7a(5H)-yl)methoxy)-5a,6,7,8,9,10-hexahydro-5H-4-oxa-3,10a,11,13,15-pentaaza-6,9-ethanonaphtho[1,8-ab]heptalene-2-yl)-3-methyl-4-(trifluoromethyl)aniline]	68		830
Cc1nc(N)cc(-c2nc3c4c(nc(OCC5(CN6CCOC7(CC7)C6)CC5)nc4c2F)N2C[C@H]4CC[C@H](N4)[C@H]2[C@H](C)O3)c1C(F)(F)F [Compound 212, 4-((5S,5aS,6S,9R)-12-((1-((4-Oxa-7-azaspiro[2.5]octan-7-yl)methyl)cyclopropyl)methoxy)-1-fluoro-5-methyl-5a,6,7,8,9,10-hexahydro-5H-4-oxa-3,10a,11,13,14-pentaaza[6,9]methanonaphtho[1,8-ab]heptalene-2-yl)-6-methyl-5-(trifluoromethyl)pyridin-2-amine]	0.56		39.1
Cc1nc(N)cc(-c2nc3c4c(nc(OCC5(CN6CC7CCC(C6)O7)CC5)nc4c2F)N2C[C@H]4CC[C@H](N4)[C@H]2[C@H](C)O3)c1C(F)(F)F [Compound 207, 4-((5S,5aS,6S,9R)-12-((1-((8-oxa-3-azabicyclo[3.2.1]octan-3-yl)methyl)cyclopropyl)methoxy)-1-fluoro-5-methyl-5a,6,7,8,9,10-hexahydro-5H-4-oxa-3,10a,11,13,14-pentaaza-6,9-methanonaphtho[1,8-ab]heptalene-2-yl)-6-methyl-5-(trifluoromethyl)pyridin-2-amine]	0.36		43.1
Cc1cc(N)c(F)c(-c2nc3c4c(nc(OC[C@@H]5CC[C@H]6COCCN65)nc4c2F)N2C[C@H]4CC[C@H](N4)[C@H]2[C@H](C)O3)c1CC(F)F [Compound 231, 4-(2,2-Difluoroethyl)-2-fluoro-3-((5S,5aS,6S,9R)-1-fluoro-12-(((6S,8aS)-hexahydro-1H-pyrrolo[2,1-c][1,4]oxazin-6-yl)methoxy)-5-methyl-5a,6,7,8,9,10-hexahydro-5H-4-oxa-3,10a,11,13,14-pentaaza-6,9-methanonaphtho[1,8-ab]heptalen-2-yl)-5-methylaniline]	4.6		1240
Cc1cc(N)c(F)c(-c2nc3c4c(nc(OCC5(CN6CCOCC6)CC5)nc4c2F)N2C[C@H]4CC[C@H](N4)[C@H]2[C@H](C)O3)c1C(F)(F)F [Compound 226, 2-Fluoro-3-((5S,5aS,6S,9R)-1-fluoro-5-methyl-12-((1-(morpholinomethyl)cyclopropyl)methoxy)-5a,6,7,8,9,10-hexahydro-5H-4-oxa-3,10a,11,13,14-pentaaza-6,9-methanonaphtho[1,8-ab]heptalene-2-yl)-5-methyl-4-(trifluoromethyl)aniline]	0.4		8.11
Cc1nc(N)cc(-c2nc3c4c(nc(OC[C@@]56CCN5CC(F)(F)C6)nc4c2F)N2C[C@H]4CC[C@H](N4)[C@H]2[C@H](C(F)(F)F)O3)c1C(F)(F)F (single isomer, unassigned) [252 (isomer 1)]	1.17		25
